“Also recorded” adds a separate entry of the source.
How the values were obtained:
ST2 cells [1] = assay: Initial toxicity studies in ST2 cells; assay type: cell-based, murine; details: ST2 cells (stromal cell line)
primary human MSCs = assay: Initial toxicity studies in primary human MSCs; assay type: cell-based
ST2 cells [2] = assay: In vitro efferocytosis assay, ST2 cells with end stage neutrophils, flow cytometry
Method: ST2 cells, a bone marrow-derived mesenchymal stromal cell line, were plated at 2×10^4 per cm^2 in αMEM without ascorbic acid (Gibco)+10% FBS+1% pen-strep and incubated in 21% oxygen at 37° C. until 80% confluency. […] End-stage neutrophils were washed with PBS and fluorescently labeled with 20 nM efluro670 (ThermoFischer) according to manufacturer's instructions. Targets (neutrophils or apoptotic lymphocytes) were given in excess (1 MSC: 10 Target) to plated MSCs and incubated for up to 24 h. Cells were then washed 3× with PBS, imaged, and collected for flow cytometry analysis.

[3] = tested on: primary human MSCs (hMSCs); assay: Efferocytosis assay with pharmacological inhibition of mitochondrial fission, hMSCs; assay type: cell-based; details: pre-treated with 25 μM Mdivi for 1 h, end stage PMN for 24 h
Method: (§1) FIGS. 6A, 6B, and 6C show quantification via flow cytometry of viability, end stage neutrophil (PMNs) engulfment, and efficiency (mean fluorescent intensity, MFI) of hMSCs pre-treated with 25 μM Mdivi for 1 h and then given end stage PMN for 24 h. […] N=3, Mean±SD shown on graphs ** p<0.01, *** p<0.001, (1-test or ANOVA).
Primary human MSCs (hMSCs) cells (Lonza) were plated at 2×10^4 per cm^2 in αMEM+10% FBS+1% pen-strep and incubated in 5% O2/5% CO2/37° C. until 80% confluent. Neutrophils were isolated from human peripheral blood via Mono-Poly resolving medium (MP Biomedicals, Inc) according to manufacturer's instructions and incubated in RPMI+10% FBS+10 mM HEPES overnight (18-20 h) at 37° C./5% CO2 as previously described (Casanova-Acebes M, et al. Cell 2013; 153:1025-35). hMSCs were treated with 25 μM Mdivi for 1 h prior to giving 20 nM efluro670 (ThermoFischer) stained end-stage neutrophils in excess (1:10) for 24 h. Cells were then washed 3× with PBS, imaged, and collected for flow cytometry analysis.
All samples were run on a LSRII flow cytometer: 3 lasers, 355 nm, 488 nm, and 633 nm (BD Biosciences). Analysis was performed using FlowJo version 10.8 (Tree Star). Sorting was done on a FACSAria II with 405-, 488-, 532-, and 633 nm lasers (BD Biosciences). All flow cytometry equipment is housed and quality controlled within the URMC Flow Cytometry core.

[4] = tested on: primary human MSCs (hMSCs); assay: Alkaline phosphatase measurement (osteoblastic differentiation) with inhibition of mitochondrial fission, hMSCs; assay type: cell-based; details: for osteoblastic differentiation potential (alkaline phosphatase) of hMSCs: co-treatment with 25 μM Mdivi and PMN
Method: as §1
Cells were washed with PBS 3× and then fixed with formalin for 30 min at room temperature (RT). Following fixation, the cells were washed with water 3× and left to sit for 15 min at RT while preparing alkaline phosphatase (AP) staining. To prepare the AP stain, 5 mg Naphthol AS MX-PO4 was dissolved in 200 μL of N,N-dimethylformamide (DMF), 25 mL 0.2 M Tris pH 8.3, and 25 mL water. Red Violet LB salt (30 mg) was added to solution, vortexed, and filter through 45 μm filter. After incubation with AP stain for 45 min RT, cells were washed with water 3× and then stained with 2.5% silver nitrate for 30 min RT in a ventilated area, then washed with water and air dried. All plates were imaged via light microscopy and quantified for osteoblastic formation using ImageJ software.
Cells that performed efferocytosis in the presence or absence of Mdivi, were washed and stained for AP as described above. Wells were photographed, and images were analyzed using ImageJ for staining intensity.

macrophages = details: targeting via clodronate; cited from earlier work

## CN1CCN(Cc2ccc(Nc3ncc(Cl)c(Nc4ccccc4S(=O)(=O)N(C)C)n3)cc2)CC1 [TP0903]
ST2 cells [1]
  toxicity: low toxicity
Primary human MSCs
  toxicity: low toxicity
ST2 cells [2]; 3 and 24 hrs, pre treated with 100 nM TP0903 for 1 hr, excess (5 PMN: 1 MSC) end stage hPMNs
  efferocytosis by ST2 cells: blocks efferocytosis for a short duration
ST2 cells [2]; 3 hours after neutrophil addition, flow cytometry
  neutrophil uptake by MSCs: significantly reduced

## COc1cc(-n2c(S)nc3ccccc3c2=O)c(Cl)cc1Cl [Mdivi]
[3]
  efficiency (MFI) of efferocytosis by hMSCs: decreased
  overall rate of efferocytosis (end stage PMN engulfment) by hMSCs: decreased; also recorded: decreases efferocytic activity in MSCs
  viability of hMSCs: without impacting their viability
[3]; listed as MDivi
  overall rate of efferocytosis (end stage PMN engulfment) by hMSCs: decreases human MSC (hMSC) efferocytosis
[4]; Mdivi treatment in the absence of PMN
  osteoblastic differentiation (alkaline phosphatase) of hMSCs: trending increase in osteoblastic differentiation; also recorded: increases osteoblastic differentiation independent of efferocytic activity
[4]
  osteoblastic differentiation potential (alkaline phosphatase) of hMSCs: rescued the osteoblastic differentiation potential; also recorded: rescues the defect in osteoblastic differentiation
[4]; listed as MDivi
  osteoblastic differentiation potential (alkaline phosphatase) of hMSCs: restores MSC osteoblastic differentiation

## O=P(O)(O)C(Cl)(Cl)P(=O)(O)O [clodronate]
macrophages
  bone loss: did not result in bone loss
